Experimental data reported in patent publication US9234025B2, “Extracellular allosteric inhibitor binding domain from a tyrosine kinase receptor” (SANOFI, priority 2009, dated 2016).

How the values were obtained:
FGFR2 = target: T1, FGFR2 (Homo sapiens, UniProt P21802); assay: FGF ligand binding to FGFR2 in intact cells; settings: receptor expressed in intact cells
T1 construct: or the expression of the entire intact receptor in its native environment

[1] = system: AKT phosphorylation in HUVEC cells; assay: western blot analysis of AKT phosphorylation in HUVEC; type: cell-based, human; settings: phospho-AKT Ser473
Experimental: HUVE Cells (Promocell, C-12200) are seeded in 35 mm collagen I coated disk (BD Biocoat, 354456) at 0.5.10^6 cells in 2 ml of EBM medium (Clonetics, CC-3121) containing 2% FBS (Clonetics, CC-4101), 10 μg/ml hEGF (Clonetics, CC-4017) from the EGM singlequots kit (Clonetics, CC-4133), 1250 ng/ml heparin (Sigma, H3149) and 375 ng/ml ECGS (BD Biosciences, 356006). At 90% confluency, cells are starved overernight in 1.8 ml of RPMI 1640 (Invitrogen, 32404-014), 0.5% FCS, 2 mM glutamine, 1 mM non-essential amino acids (Invitrogen, 11140-050), sodium pyruvate (Invitrogen, 11360-070). The day after, cells are stimulated 10 min by 200 μl of equilibrated starvation medium that contains 10×FGF-4 (30 ng/ml; R&D, 235-F4-025) with or without 10×SSR (3 μM). Next, cells are rinsed with cold PBS and cell lysed with 75 μl RIPA that contains 2.5 mM orthovanadate and protease inhibitors cocktail (Sigma, P8340). Cell lysates were centrifuged at 12,000 g for 10 min, and the supernatants were collected. Proteins were separated on 4-20% Novex Tris-Glycine polyacrylamide gels (Invitrogen) and subsequently transferred onto nitrocellulose membranes (Invitrogen, IB3010-01). […] Signal of each spot is obtained following chemiluminescent detection with SuperSignal® West Dura Extended Duration Substrate (Thermo Scientific, 34076) and spot density is quantified using a Biolmaging System Chemigenius2 (Syngene).

HUVEC = assay: cell migration with various growth factors (modified Boyden chamber); type: cell-based, human; settings: SSR 1 μM
Experimental: Cell migration was assessed by a modified Boyden chamber assay, by using 24-well inserts containing 8 μm pore size transwell permeable supports with a polycarbonate membrane (Costar, Corning Inc.). Exponentially growing cells were starved in 0.2% FBS containing medium for 16 hours and resuspended at 5×10^5 cells/ml in the same low serum medium. 100 μl of the cell suspension were seeded in the upper chamber, while chemoattractants and/or SSR were placed in the lower chamber. Chemoattractants tested include: human PDGF-BB, IGF-I, PIGF, EGF, all at 100 ng/ml, in the presence or absence of SSR (1 μM). 10% FBS containing medium was used a positive control. After 6 hours incubation at 37° C., cells on the upper side of the membrane were scraped using a cotton swab, while migrated cells on the lower surface were fixed with 1% paraformaldehyde in PBS and nuclei stained with DAPI for quantification using a fluorescent microsope. Quanitifcation is performed by making 5 random images at a magnification of 10× and by counting the number of nuclei.

[2] = system: cognate receptor of >100 distinct ligands; assay: SPA selectivity, >100 distinct ligands to their cognate receptor; type: binding; settings: ligands with related structural homology or entirely different chemical composition
FGFR3^∂23 = target: T2, FGFR3^∂23 (Homo sapiens, UniProt P22607); assay: isothermal titration calorimetry (ITC), FGFR3; type: binding
T2 construct: two ECD fragments, FGFR2^∂23 (consisting of domain D2 and 3) and FGFR3^∂23; made in house

FGFR2^∂23 = target: T3, FGFR2^∂23 (Homo sapiens, UniProt P21802); assay: isothermal titration calorimetry (ITC), FGFR2; type: binding
T3 construct: FGFR2^∂23 (consisting of domain D2 and 3); made in house
Experimental: All calorimetric experiments were performed at 30° C. with a VP-ITC titration calorimeter (MicroCal Inc., Northampton, Mass.) as previously described^45. Titrations involved the addition of 10 μL aliquots of 1.25 mM SSR via a rotating stirrer-syringe to the solution cell containing 1.407 mL of the 10-20 μM interacting protein (i.e. FGFR2^∂123, FGFR2^∂23 and its described mutants and subdomains, FGFR3^∂123, FGF1, FGF2 and Follistatin (as negative control) at 4 min intervals. A constant stirring speed of 300 rpm was maintained and data were fitted to the standard noninteracting one site model supplied by MicroCal, with n fixed as 1.0. All measurements were performed in 10 mM HEPES pH7.2, 150 mM NaCl, and proteins were purified as previously described (Pellegrini et al., 2000). Mutagenesis was performed using the ‘site directed mutagenesis kit’ (Stratagene).

[3] = target: T4, hFGFR1IIIcα-Hemagluttinin (Homo sapiens, UniProt P11362); assay: FGFR1 phosphorylation in rat fat-pad endothelial cells; type: cell-based
T4 construct: expressed in transfected cells; host or cells: rat fat-pad endothelial cells (RFPEC)
Experimental: Rat fat-pad endothelial cells, stably transfected with hFGFR1IIIcα-Hemagluttinin, were grown to 80-90% confluency and serum starved (0.5% FBS) for 24 h. Stimulation was performed during 5 minutes with FGF2 at 2 ng/ml in combination with SSR or DMSO (as control). Cell lysates were centrifuged at 12,000 g for 10 min, and the supernatants were collected. HA-tagged proteins were immunoprecipitated by incubation of cell lysates overnight at 4° C. in the presence of agarose conjugated anti-HA antibodies. Immune complexes were washed three times with 1 ml of lysis buffer; proteins were eluted via incubation with 50 μl of 2×SDS sample buffer and boiling. Proteins were separated on Novex polyacrylamide gels (Invitrogen, Carlsbad, Calif.) and subsequently transferred onto Hybond ECL nitrocellulose membranes (Amersham Pharmacia). Following incubation with 5% non-fat milk powder in PBS, the membranes were incubated overnight at 4° C. with the following antibodies: pFGFR (CST: 3471) and FGFR1 (CST: 3472).

T4 sequence (P11362 22-822): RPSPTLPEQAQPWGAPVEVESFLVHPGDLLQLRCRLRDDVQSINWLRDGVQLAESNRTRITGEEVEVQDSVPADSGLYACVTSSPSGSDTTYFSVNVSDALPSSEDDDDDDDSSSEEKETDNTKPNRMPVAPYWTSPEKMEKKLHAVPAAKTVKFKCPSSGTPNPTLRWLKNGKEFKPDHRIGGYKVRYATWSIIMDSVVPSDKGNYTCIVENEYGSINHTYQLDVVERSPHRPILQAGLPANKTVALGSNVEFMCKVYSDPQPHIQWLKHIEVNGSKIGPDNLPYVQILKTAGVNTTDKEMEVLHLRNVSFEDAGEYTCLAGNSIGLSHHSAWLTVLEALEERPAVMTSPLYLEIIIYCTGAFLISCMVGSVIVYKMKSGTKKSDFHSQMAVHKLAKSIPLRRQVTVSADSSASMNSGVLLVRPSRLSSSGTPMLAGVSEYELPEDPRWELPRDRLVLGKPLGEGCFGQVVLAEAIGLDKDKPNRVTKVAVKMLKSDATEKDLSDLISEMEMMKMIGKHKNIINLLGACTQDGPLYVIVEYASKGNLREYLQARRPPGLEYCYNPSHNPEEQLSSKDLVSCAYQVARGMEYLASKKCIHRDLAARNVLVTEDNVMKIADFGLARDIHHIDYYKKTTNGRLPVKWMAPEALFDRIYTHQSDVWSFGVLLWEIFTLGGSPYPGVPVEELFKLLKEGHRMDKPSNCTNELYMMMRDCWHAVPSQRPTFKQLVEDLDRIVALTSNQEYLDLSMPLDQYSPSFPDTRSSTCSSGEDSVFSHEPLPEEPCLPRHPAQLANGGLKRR
T3 sequence (P21802 148-366 limits assumed): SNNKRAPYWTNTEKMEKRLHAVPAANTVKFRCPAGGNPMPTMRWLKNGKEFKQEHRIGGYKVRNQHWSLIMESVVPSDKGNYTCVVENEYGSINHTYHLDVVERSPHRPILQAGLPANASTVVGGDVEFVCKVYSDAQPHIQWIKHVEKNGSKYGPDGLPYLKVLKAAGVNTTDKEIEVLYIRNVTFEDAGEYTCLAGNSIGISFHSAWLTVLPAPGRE
T2 sequence (P22607 145-365): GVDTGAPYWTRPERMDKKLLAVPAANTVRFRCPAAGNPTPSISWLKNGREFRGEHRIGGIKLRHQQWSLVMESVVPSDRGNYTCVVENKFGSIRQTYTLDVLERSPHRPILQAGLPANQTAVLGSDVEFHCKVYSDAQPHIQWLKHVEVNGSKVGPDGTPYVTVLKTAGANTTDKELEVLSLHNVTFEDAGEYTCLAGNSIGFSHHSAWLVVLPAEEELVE
T1 sequence (P21802 22-821): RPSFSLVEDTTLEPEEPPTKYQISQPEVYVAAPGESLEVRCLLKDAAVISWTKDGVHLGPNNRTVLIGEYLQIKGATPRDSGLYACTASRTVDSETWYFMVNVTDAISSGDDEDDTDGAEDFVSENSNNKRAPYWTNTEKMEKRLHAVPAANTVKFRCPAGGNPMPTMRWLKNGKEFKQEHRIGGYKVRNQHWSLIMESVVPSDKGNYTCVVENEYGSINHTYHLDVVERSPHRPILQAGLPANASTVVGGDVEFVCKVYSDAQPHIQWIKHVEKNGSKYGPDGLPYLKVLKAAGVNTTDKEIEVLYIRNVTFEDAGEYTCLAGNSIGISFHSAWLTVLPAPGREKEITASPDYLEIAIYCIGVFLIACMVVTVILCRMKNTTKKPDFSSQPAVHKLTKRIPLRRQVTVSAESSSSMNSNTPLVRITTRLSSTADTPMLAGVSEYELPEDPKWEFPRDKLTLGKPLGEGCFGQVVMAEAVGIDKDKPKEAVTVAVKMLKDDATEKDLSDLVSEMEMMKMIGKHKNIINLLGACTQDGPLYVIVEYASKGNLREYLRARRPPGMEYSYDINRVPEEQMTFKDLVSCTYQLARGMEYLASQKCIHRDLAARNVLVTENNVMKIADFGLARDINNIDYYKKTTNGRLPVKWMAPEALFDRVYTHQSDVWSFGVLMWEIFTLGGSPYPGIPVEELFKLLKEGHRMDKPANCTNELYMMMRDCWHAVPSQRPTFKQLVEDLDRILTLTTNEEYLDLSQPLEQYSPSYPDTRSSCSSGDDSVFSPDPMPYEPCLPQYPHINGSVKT

COc1c(C)c(C(=O)c2ccc(N)c(C(=O)[O-])c2)n2ccccc12.[Na+] [SSR] was tested, and the “binding of FGF2 or FGF4 to FGFR2” value (FGFR2) was “failed to antagonize”, the “FGF-induced AKT phosphorylation” value [1] was “inhibit” and the “cellular response (migration) induced by EGF” value (HUVEC; EGF 100 ng/ml) was “did not affect”. For the same molecule, the “cellular response (migration) induced by IGF” value (HUVEC; IGF-I 100 ng/ml) was “did not affect”, the “cellular response (migration) induced by PDGF-BB” value (HUVEC; PDGF-BB 100 ng/ml) was “did not affect” and the “cellular response (migration) induced by PIGF” value (HUVEC; PIGF 100 ng/ml) was “did not affect”. The “binding of >100 distinct ligands to their cognate receptor” value [2] was “not inhibiting”, the “binding to FGFR3” value (FGFR3^∂23) was “bound” and the “binding to FGFR2” value (FGFR2^∂23) was “bound”. The “FGF2-induced FGFR1 tyrosine phosphorylation” value ([3]; SSR in the nanomolar concentration range) was “highly reduced” and the “residual FGFR1 tyrosine phosphorylation” value ([3]; even at high doses) was “does not completely eliminate FGFR1 tyrosine phosphorylation”.
